Experiments:
[1] = target: full-length wild-type murine hepsin expressed in HEK 293FT cells (Mus musculus (Mouse), UniProt O35453); experiment: Hepsin-dependent pericellular serine proteolytic activity assay; format: cell-based; conditions: for attenuation of hepsin-dependent pericellular proteolytic activity: 50 μM, activity/expression level relative to vehicle; for attenuation of hepsin-dependent pericellular proteolytic activity / pericellular proteolytic activity (in words): overnight incubation; for pericellular proteolytic activity (in words): 20 and 50 μM
Sequence of full-length wild-type murine hepsin expressed in HEK 293FT cells (O35453 other isoform, or with tags, fused parts or gaps): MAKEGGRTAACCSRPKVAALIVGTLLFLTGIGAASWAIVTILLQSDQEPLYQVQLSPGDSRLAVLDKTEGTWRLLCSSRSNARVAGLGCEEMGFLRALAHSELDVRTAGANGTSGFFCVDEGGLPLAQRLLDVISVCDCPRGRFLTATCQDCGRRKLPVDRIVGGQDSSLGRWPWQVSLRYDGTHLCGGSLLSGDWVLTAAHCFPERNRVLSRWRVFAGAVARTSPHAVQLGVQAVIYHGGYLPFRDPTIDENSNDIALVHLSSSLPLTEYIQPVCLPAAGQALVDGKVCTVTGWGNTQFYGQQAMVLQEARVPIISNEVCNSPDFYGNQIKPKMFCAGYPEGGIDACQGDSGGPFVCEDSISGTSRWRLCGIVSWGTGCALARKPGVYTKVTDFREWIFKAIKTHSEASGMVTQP
Experimental: Loading was verified via immunoblot against β-actin.
G. Pericellular Serine Proteolytic Activity Assay. […] After 3.5 hrs, transfection media was replaced with fresh media containing 20 μM or 50 μM of test compounds or solvent control (0.5% DMSO in media) and cells incubated overnight. Attached cell monolayers were then washed twice with PBS and once with assay buffer (5% CO2 equilibrated phenol-red free DMEM with 1% BSA) to remove residual serum proteases/inhibitors. Cells were then incubated in assay buffer containing 20 or 50 μM compounds for 30 minutes at 37° C. […] Percent inhibition was calculated as residual activity relative to solvent control. Matched samples were used in parallel to determine toxicity of the test compounds to HEK 293FT cells in this system using the CellTiter-Glo™ assay.
D. Inhibition of Hepsin-Dependent Pericellular Proteolytic Activity. To determine whether the identified compounds were able to inhibit cell-based hepsin activity, an assay was devised to measure hepsin-dependent pericellular serine proteolytic activity (FIG. 5A) (Raynaud et al., 1992 J Cell Physiol 151:378; Bauvois et al., 1990 Eur. J. Immunol. 20:459; Bauvois et al., 1992 Eur. J. Immunol. 22:923; Sameni et al., 2000 Neoplasia 2:496; McGowen et al., 2000 Canc. Res. 60:4771). […] Attached cell monolayers were incubated in assay buffer with peptide substrate and the reactions were allowed to proceed at 37° C. […] Activity levels were adjusted by altering hepsin expression levels to within the linear range of detection. A positive linear rate of activity was observed only for wild-type hepsin-expressing cells and was abolished in the presence of the broad spectrum serine protease inhibitor PEFAbloc.

thrombin = thrombin (Bos taurus (Bovine), UniProt P00735); experiment: Thrombin activity assay (chromogenic substrate); format: biochemical; conditions: 30 minutes preincubation at room temperature, substrate at Km
Experimental: (§3) Titration of the chromogenic substrate pryoGlu-Pro-Arg-pNA was performed for each enzyme and the resulting substrate-velocity data fit with nonlinear regression using GraphPad Prism 4 software (GraphPad, La Jolla, Calif.) to calculate Vmax and Km. […] The reactions were then followed using a kinetic microplate reader and the linear rates of increase in absorbance at 405 nm expressed as percent activity (100%×vi/vo). At least three independent experiments were performed for each enzyme. The IC50 was calculated by fitting the data to a four-parameter non-linear regression using GraphPad Prism 4.

HepG2 cells = experiment: Cell cytotoxicity assay (CellTiter-Glo, ATP-luciferase); conditions: HepG2, 20 μM, 72 hours, compounds replenished daily
hepsin = hepsin (Mus musculus (Mouse), UniProt O35453); experiment: Immunoblot of hepsin expression levels in compound treated HEK 293FT cells; conditions: 20 and 50 μM, 24 hours
Experimental: The membrane was blocked overnight in TBST buffer containing: 5% non-fat milk, 2% normal goat serum in 50 mM Tris-HCl, pH 8.0, 100 mM NaCl, 0.1% Tween-20. The membrane was then incubated in 3% BSA in TBST with polyclonal anti-hepsin antibody (1:1000) for two hours at room temperature, washed 3×5 minutes with TBST and incubated for one hour in 0.1% BSA in TBST containing goat-anti-rabbit-HRP secondary antibody (1:2000), washed 3×5 minutes in TBST and developed with ECL (Pierce Chemicals, Rockford, Ill.). […] Expression levels were quantified by densitometry using ImageQuantTL™ (GE Healthcare Life Sciences, Piscataway, N.J.).
As treatment with chemical compounds may alter hepsin expression level (and thereby impact pericellular proteolytic activity), hepsin levels in drug-treated cells were determined via immunoblotting (FIG. 6B).

LNCaP cells = experiment: Cell cytotoxicity assay (CellTiter-Glo, ATP-luciferase); conditions: 20 μM, 72 hours, compounds replenished daily
trypsin = trypsin (Sus scrofa (Pig), UniProt P00761); experiment: Trypsin activity assay (chromogenic substrate); conditions: read-out: IC50 trypsin; 30 minutes preincubation at room temperature, substrate at Km
Sequence of trypsin (P00761 9-231): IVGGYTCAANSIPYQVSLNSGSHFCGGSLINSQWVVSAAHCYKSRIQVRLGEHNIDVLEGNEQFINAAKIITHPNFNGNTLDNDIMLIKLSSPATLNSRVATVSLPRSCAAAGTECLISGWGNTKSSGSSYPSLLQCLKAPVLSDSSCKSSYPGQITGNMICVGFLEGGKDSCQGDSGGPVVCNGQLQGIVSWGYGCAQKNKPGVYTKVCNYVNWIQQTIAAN
Experimental: as §3

[2] = tested on: MP-1 mouse prostate epithelial cell line; experiment: Cell cytotoxicity assay (CellTiter-Glo, ATP-luciferase); conditions: MP-1, 20 μM, 72 hours, compounds replenished daily
recombinant human hepsin [3] = target: recombinant human hepsin (Homo sapiens, UniProt P05981); experiment: Hepsin activity assay (chromogenic substrate pyroGlu-Pro-Arg-pNA); format: biochemical; conditions: 30 minutes preincubation at room temperature, substrate at Km
Sequence of recombinant human hepsin (Homo sapiens, UniProt P05981) (P05981 1-162 limits assumed): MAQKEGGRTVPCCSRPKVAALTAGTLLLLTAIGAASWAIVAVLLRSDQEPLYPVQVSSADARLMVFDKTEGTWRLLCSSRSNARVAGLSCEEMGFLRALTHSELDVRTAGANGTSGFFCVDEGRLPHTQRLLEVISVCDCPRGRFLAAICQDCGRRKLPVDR
Sequence of recombinant human hepsin (Homo sapiens, UniProt P05981) (P05981 163-417 limits assumed): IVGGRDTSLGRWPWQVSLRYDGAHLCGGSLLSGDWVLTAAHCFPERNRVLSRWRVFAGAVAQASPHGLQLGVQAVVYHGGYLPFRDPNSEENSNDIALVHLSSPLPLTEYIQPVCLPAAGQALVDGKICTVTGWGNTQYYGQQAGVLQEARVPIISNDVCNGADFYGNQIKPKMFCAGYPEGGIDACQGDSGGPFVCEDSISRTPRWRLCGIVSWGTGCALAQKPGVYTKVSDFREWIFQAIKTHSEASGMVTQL
Experimental: (§1) D. Hepsin, Trypsin and Thrombin Activity Assays.
(§2) Purified recombinant hepsin was preincubated with indicated compounds for 30 minutes at room temperature.

recombinant human hepsin [4] = experiment: as above; format: biochemical; conditions: hepsin relative to trypsin and thrombin
Experimental: as §1, §2

[5] = approximate value; cited from earlier work
HEK 293FT cells = experiment: Toxicity to HEK 293FT cells in the pericellular protease assay system (CellTiter-Glo); format: cell-based; conditions: 50 μM, 24-hour treatment
Experimental: The chromogenic serine protease substrate pyroglutamyl-L-prolyl-L-argininne-p-nitroaniline hydrochloride (pyrGlu-Pro-Arg-pNA) was then added to the media. […] (FIG. 5B) Toxicity of the candidate hepsin inhibitor compounds over the course of the pericellular protease assay was evaluated by 24-hour treatment of cells with 20 μM (white bars) or 50 μM (black bars) compounds, relative to vehicle control. […] Puromycin at 5 μg/mL was used as a positive control.
G. Pericellular Serine Proteolytic Activity Assay. […] After 3.5 hrs, transfection media was replaced with fresh media containing 20 μM or 50 μM of test compounds or solvent control (0.5% DMSO in media) and cells incubated overnight. […] Percent inhibition was calculated as residual activity relative to solvent control. […]
To determine the potential cytotoxicity of the previously identified hepsin inhibitors in this model system, HEK 293FT cells were incubated under identical conditions with 20 and 50 μM of the compounds and cytotoxicity was determined using the ATP-luciferase coupled assay as described above (FIG. 5B). […] The remaining compounds at 20 and 50 μM final concentration were incubated overnight with hepsin expressing cells and pericellular proteolytic activity was determined as described above (FIG. 6).

SMILES	pericellular proteolytic activity in the presence of inhibitor ([1]; wild-type hepsin-expressing cells, 30 minutes incubation)	IC50 (thrombin) [µM]	cellular toxicity (cell viability) (HepG2 cells)	hepsin expression levels (hepsin)	attenuation of hepsin-dependent pericellular proteolytic activity [1]	pericellular proteolytic activity (in words) [1]	cellular toxicity (cell viability) (LNCaP cells)	IC50 (trypsin) [µM]	cellular toxicity (cell viability) [2]	IC50 (recombinant human hepsin [3]) [µM]	attenuation of hepsin-dependent pericellular proteolytic activity ([1]; listed as Meclizine) [%]	specificity for hepsin (recombinant human hepsin [4]) [fold]	logP [5]	cytotoxicity to HEK 293FT cells (HEK 293FT cells)
Cl.NCCc1ccc(S(=O)(=O)F)cc1 [PEFAbloc, reference compound]	abolished	–	–	–	–	–	–	–	–	–	–	–	–	–
O=C1NC(=O)N(c2cccc(Br)c2)C(=O)/C1=C/c1c[nH]c2ccccc12 [Compound 3]	–	> 20	limited or no cytotoxicity	without substantially affecting hepsin expression levels	approximately 50%	attenuated pericellular proteolytic activity in a dose dependent manner	limited or no cytotoxicity	7.63 ± 1.51	limited or no cytotoxicity	1.93 ± 0.39	–	–	–	–
O=[N+]([O-])c1ccc(C2Nc3c(cccc3C(F)(F)F)C3C=CCC32)cc1 (stereo not shown) [Compound 5, 4-(4-nitrophenyl)-6-(trifluoromethyl)-3a,4,5,9b-tetrahydro-3H-cyclopenta[c]quinoline]	–	> 20	limited or no cytotoxicity	without substantially affecting hepsin expression levels	approximately 60%	attenuated pericellular proteolytic activity in a dose dependent manner	limited or no cytotoxicity	31.2 ± 2	limited or no cytotoxicity	0.57 ± 0.19	–	–	–	–
Cc1cccc(CN2CCN(C(c3ccccc3)c3ccc(Cl)cc3)CC2)c1 (stereo not shown) [Compound 13, 1-[(4-chlorophenyl)(phenyl)methyl]-4-(3-methylbenzyl)piperazine, reference compound]	–	> 20	limited or no cytotoxicity	without substantially affecting hepsin expression levels	~25%	attenuated pericellular proteolytic activity in a dose dependent manner	limited or no cytotoxicity	> 20	limited or no cytotoxicity	2.02 ± 0.37	30	> 10	–	–
CC(C)(Sc1cc(C(C)(C)C)c(O)c(C(C)(C)C)c1)Sc1cc(C(C)(C)C)c(O)c(C(C)(C)C)c1 [Compound 14, 4,4′-[propane-2,2-diylbis(sulfanediyl)]bis(2,6-di-tert-butylphenol), reference compound]	–	> 20	limited or no cytotoxicity	–	–	not have shown an ability to reduce pericellular serine protease activity	limited or no cytotoxicity	33.5 ± 11.5	limited or no cytotoxicity	0.43 ± 0.05	–	–	~10	–
O=C1c2c(O)cccc2Cc2cccc(O)c21 [Compound 15, 1,8-dihydroxyanthracen-9(10H)-one, reference compound]	–	> 20	toxic	–	–	–	toxic	1.26 ± 0.3	toxic	0.23 ± 0.05	–	–	–	substantial toxicity
Cc1cccc(C2Nc3cccc4cccc(c34)N2)c1 [Compound 4, 2-(3-methylphenyl)-2,3-dihydro-1H-perimidine]	–	> 20	limited or no cytotoxicity	without substantially affecting hepsin expression levels	approximately 60%	attenuated pericellular proteolytic activity in a dose dependent manner	limited or no cytotoxicity	19.6 ± 2.7	limited or no cytotoxicity	0.35 ± 0.12	–	–	–	–
O=C(Nc1ccc(-c2nc3ccccc3o2)c(O)c1)c1ccc(-c2cccc([N+](=O)[O-])c2)o1 [Compound 12, N-[4-(1,3-benzoxazol-2-yl)-3-hydroxyphenyl]-5-(3-nitrophenyl)-2-furamide]	–	> 20	without affecting	–	–	–	substantially toxic	3.5 ± 0.67	substantially toxic	0.33 ± 0.07	–	–	–	substantial toxicity
